According to PMC6441007, “Semi-solid prodrug nanoparticles for long-acting delivery of water-soluble antiretroviral drugs within combination HIV therapies” (Nature Communications, 2019):
Values after ≈ are worked out from the molar mass of the structure shown. Read-outs that look alike come from different tables or passages of the source. Values belong to the molecule of their own block, whether it stands above or below them.

Tests used:
[1] = Prodrug hydrolysis in undiluted human plasma (HPLC, half-life); format: in vitro ADME; conditions: 1 mM, 37 °C
Method: (§1) As expected, rapid enzyme-catalysed hydrolysis of the 5’-carbonate group of 1–8 was observed, evident from the short plasma half-lives (<12 h) and relatively rapid initial hydrolysis rates in liver S9 and muscle S9 fractions (evaluated over a timeframe in which the carbamate masking group remains intact). […] Although chemically similar to capecitabine at the carbamate moiety, the plasma half-lives of longer-chain carbamates 12–16 were generally shorter. Initial hydrolysis rates in liver and muscle S9 fractions were within a sixfold range of capecitabine as measured in our hands, with the longer C5 to C8 analogues (13–16) undergoing hydrolysis most efficiently in liver S9 (Supplementary Figure 21). […] In all cases, the hydrolysis of the carbonate moiety of 1–8 was considerably faster in liver than muscle.
Reaction mixtures containing pooled mixed gender human plasma (Bioreclamation) were pre-incubated at 37 °C for 5 min. Reactions were initiated by the addition of prodrugs 1–8 (1 mM + 5% DMSO). […] The supernatant was diluted 10-fold into phosphate buffer (0.1 M, pH 7.4) and analysed by HPLC method described within Supplementary Information (monitoring starting material depletion at 305 nm). […]
323 buffer (0.1 M, pH 7.4) and analyzed by the HPLC method described above monitoring […]

[2] = Initial rate of prodrug hydrolysis in human liver S9 (HPLC); format: in vitro ADME; conditions: for Hydrolysis liver: IVIVE model input, determined experimentally
Method: as §1
(§2) Reaction mixtures containing mixed gender human skeletal muscle S9 (10.47 mg mL^−1, Bioreclamation) or phosphate buffer (0.1 M, pH 7.4) and pooled, mixed gender liver S9 (2.0 mg mL^−1, Xenotech) were pre-incubated at 37 °C for 5 min. Reactions were initiated by the addition of prodrugs 1–8 (1 mM + 5% DMSO). After incubation at 37 °C, aliquots were taken at time points measuring initial rate (Muscle S9: 1–3: 0.5, 10, 20, 30, 40, 50, and 60 min; 4: 0.5, 20, 40, 60, 80, 100, and 120 min; 5–6: 0.5, 30, 60, 90, 150, and 180 min; 7–8: 0.5 min, 30 min, 1 h, 3 h, 4 h, 5 h) (Liver S9: 1–2: 0.5, 1, 2, 3, 4, and 5 min; 3–6: 0.5, 2, 4, 6, 8, and 10 min; 7–8: 0.5, 5, 10, 15, 20, 25, 30, and 60 min). These aliquots were quenched in two volumes of ice-cold methanol. The quenched aliquots were then centrifuged at 16,873 × g for 5 min. The supernatant was diluted 10-fold into phosphate buffer (0.1 M, pH 7.4) and analysed by HPLC method described within Supplementary Information (monitoring starting material depletion at 305 nm). […]

[3] = Initial rate of prodrug hydrolysis in human skeletal muscle S9 (HPLC); format: in vitro ADME; conditions: for Hydrolysis muscle: IVIVE model input, determined experimentally
Method: as §1, §2

[4] = tested on: human immunodeficiency virus type 1 reverse transcriptase; conditions: intracellular FTC-TP; cited from earlier work
[5] = IVIVE model input parameter (Supplementary Table 4); source not given; cited from earlier work
[6] = cited from earlier work
[7] = 25 °C; cited from earlier work
viral replication = conditions: plasma concentration; cited from earlier work
[8] = oral 400mg FTC, human clinical data, mean (minimum-maximum)
[9] = oral FTC at steady state, average of 3 independent clinical studies, mean (± SD), ref Supplementary References 3-5

Compound: CCCCCCCCOC(=O)Nc1nc(=O)n([C@@H]2CS[C@H](COC(=O)OCCCCCCCC)O2)cc1F [prodrug 8, Octyl (5-fluoro-1-((2R,5S)-2-((((octyloxy)carbonyl)oxy)methyl)-1,3-oxathiolan-5-yl)-2-oxo-1,2-dihydropyrimidin-4-yl)carbamate]
Hydrolysis liver [2]: 0.0694 h⁻¹
Hydrolysis muscle [3]: 0.0067 h⁻¹

Compound: COC(=O)Nc1nc(=O)n([C@@H]2CS[C@H](COC(=O)OC)O2)cc1F [prodrug 1, Methyl (5-fluoro-1-((2R,5S)-2-(((methoxycarbonyl)oxy)methyl)-1,3-oxathiolan-5-yl)-2-oxo-1,2-dihydropyrimidin-4-yl)carbamate]
melting point: 97 to 103 °C

Compound: Nc1nc(=O)n([C@@H]2CS[C@H](COP(=O)(O)OP(=O)(O)OP(=O)(O)O)O2)cc1F [FTC-TP, FTC triphosphate]
intracellular half-maximal inhibitory concentration (IC50) [4]: 150 fmol per 10^6 cells

Compound: Nc1nc(=O)n([C@@H]2CS[C@H](CO)O2)cc1F [FTC, emtricitabine]
Plasma Cl [5]: 19.35 L/h
AUC, observed [6, 8]: 16484 (11524-21388) ng/h/mL
Cmax, observed [6, 8]: 2968 (1582-4165) ng/mL
Cmin, observed [6, 8]: 63 (48-134) ng/mL
AUC, observed [6, 9]: 9100 (± 1646) ng/h/mL
Cmax, observed [6, 9]: 1773 (± 46.1) ng/mL
Cmin, observed [6, 9]: 67 (± 25) ng/mL
water solubility [7]: 112 mg/mL (≈ 453 mM)
concentration inhibiting 90% of viral replication (IC90) (viral replication): 0.05 µg/mL

Compound: CCCCCOC(=O)Nc1nc(=O)n([C@@H]2CS[C@H](COC(=O)OCCCCC)O2)cc1F [prodrug 5, Pentyl (5-fluoro-2-oxo-1-((2R,5S)-2-((((pentyloxy)carbonyl)oxy)methyl)-1,3-oxathiolan-5-yl)-1,2-dihydropyrimidin-4-yl)carbamate]
melting point: 103 to 106 °C

Compound: CCCCOC(=O)Nc1nc(=O)n([C@@H]2CS[C@H](COC(=O)OCCCC)O2)cc1F [prodrug 4, Butyl (1-((2R,5S)-2-(((butoxycarbonyl)oxy)methyl)-1,3-oxathiolan-5-yl)-5-fluoro-2-oxo-1,2-dihydropyrimidin-4-yl)carbamate]
Hydrolysis liver [2]: 0.5786 h⁻¹
Hydrolysis muscle [3]: 0.0290 h⁻¹

Compound: CCCCCCOC(=O)Nc1nc(=O)n([C@@H]2CS[C@H](COC(=O)OCCCCCC)O2)cc1F [prodrug 6, Hexyl (5-fluoro-1-((2R,5S)-2-((((hexyloxy)carbonyl)oxy)methyl)-1,3-oxathiolan-5-yl)-2-oxo-1,2-dihydropyrimidin-4-yl)carbamate]
melting point: 110 °C

Continued, values first:

plasma half-life (hydrolysis of 5'-carbonate moiety) [1]: shortest
Compound: CCOC(=O)Nc1nc(=O)n([C@@H]2CS[C@H](COC(=O)OCC)O2)cc1F [prodrug 2, Ethyl (1-((2R,5S)-2-(((ethoxycarbonyl)oxy)methyl)-1,3-oxathiolan-5-yl)-5-fluoro-2-oxo-1,2-dihydropyrimidin-4-yl)carbamate]

plasma half-life (hydrolysis of 5'-carbonate moiety) [1]: shortest
5'-carbonate hydrolysis rate in liver S9 ([2]; 1 mM, 37 °C, across series 1-8): maximum
5'-carbonate hydrolysis rate in muscle S9 ([3]; 1 mM, 37 °C, across series 1-8): maximum
melting point: 102 to 107 °C
Compound: CCCOC(=O)Nc1nc(=O)n([C@@H]2CS[C@H](COC(=O)OCCC)O2)cc1F [prodrug 3, Propyl (5-fluoro-2-oxo-1-((2R,5S)-2-(((propoxycarbonyl)oxy)methyl)-1,3-oxathiolan-5-yl)-1,2-dihydropyrimidin-4-yl)carbamate]

melting point: 46 °C
Compound: CCCCCCCOC(=O)Nc1nc(=O)n([C@@H]2CS[C@H](CO)O2)cc1F [prodrug 15, Heptyl (5-fluoro-1-((2R,5S)-2-(hydroxymethyl)-1,3-oxathiolan-5-yl)-2-oxo-1,2-dihydropyrimidin-4-yl)carbamate]

Hydrolysis liver [2]: 0.0125 h⁻¹
Hydrolysis muscle [3]: 0.001 h⁻¹
melting point: 47 °C
Compound: CCCCOC(=O)Nc1nc(=O)n([C@@H]2CS[C@H](CO)O2)cc1F [prodrug 12, Butyl (5-fluoro-1-((2R,5S)-2-(hydroxymethyl)-1,3-oxathiolan-5-yl)-2-oxo-1,2-dihydropyrimidin-4-yl)carbamate]

Hydrolysis liver [2]: 0.0282 h⁻¹
Hydrolysis muscle [3]: 0.004 h⁻¹
Compound: CCCCCCCCOC(=O)Nc1nc(=O)n([C@@H]2CS[C@H](CO)O2)cc1F [prodrug 16, Octyl (5-fluoro-1-((2R,5S)-2-(hydroxymethyl)-1,3-oxathiolan-5-yl)-2-oxo-1,2-dihydropyrimidin-4-yl)carbamate]

melting point: 82 to 86 °C
Compound: CCCOC(=O)Nc1nc(=O)n([C@@H]2CS[C@H](CO)O2)cc1F [prodrug 11, Propyl (5-fluoro-1-((2R,5S)-2-(hydroxymethyl)-1,3-oxathiolan-5-yl)-2-oxo-1,2-dihydropyrimidin-4-yl)carbamate]

melting point: 44 to 47 °C
Compound: CCCCCOC(=O)Nc1nc(=O)n([C@@H]2CS[C@H](CO)O2)cc1F [prodrug 13, Pentyl (5-fluoro-1-((2R,5S)-2-(hydroxymethyl)-1,3-oxathiolan-5-yl)-2-oxo-1,2-dihydropyrimidin-4-yl)carbamate]

melting point: 85 to 89 °C
Compound: COC(=O)Nc1nc(=O)n([C@@H]2CS[C@H](CO)O2)cc1F [prodrug 9, Methyl (5-fluoro-1-((2R,5S)-2-(hydroxymethyl)-1,3-oxathiolan-5-yl)-2-oxo-1,2-dihydropyrimidin-4-yl)carbamate]

melting point: 46 to 49 °C
Compound: CCCCCCOC(=O)Nc1nc(=O)n([C@@H]2CS[C@H](CO)O2)cc1F [prodrug 14, Hexyl (5-fluoro-1-((2R,5S)-2-(hydroxymethyl)-1,3-oxathiolan-5-yl)-2-oxo-1,2-dihydropyrimidin-4-yl)carbamate]
